Publication PMC10541198, “Specific quinone reductase 2 inhibitors reduce metabolic burden and reverse Alzheimer’s disease phenotype in mice” (The Journal of Clinical Investigation, 2023)
Values joined by “and” are separate entries in the source; they are usually repeats but may differ in a detail not shown here. Equal entries are not always repeated.

Key:
Type in all cases: in vivo, mouse
[1] = Body weight during chronic ingestion; settings: for average weight: over 25 days of consumption; for Sup. Fig. 5-2A, body weight: in g (unit assumed)
Description: Supplementary Figure 6. Chronic Drinking of 50 mg/kg YB -537 for of 1 Month Causes no Changes
in General Mouse Physiology or Behavior but Improves Nesting Behavior Over Time. […]

5xFAD mice [2] = experiment: Nesting in 5xFAD mice; set-up: key to Sup. Fig. 5-2J, nesting: nesting score on a scale of 1 to 5
Description: Each home cage was given six identical portions of cotton wool tubes and 24 h later the nest made was photographed from above. The images were gi ven the names of the respective cages, whi ch were coded […]
(see ‘Blinding Measures for Animal Experiments’ section), and were analyzed by an experimenter that was blind to the conditions, groups and cage codes. […]
Analysis of the images was done blind, by an experimenter unaware of the experimental conditions or details, using Imaris (Bitplane) software. Surface reconstruction module was used to extract the data as volumes and / or si gnal intensities of the used markers (4-HNE, phospho- t au, amyloid β and Iba 1) .

5xFAD mice [3] = experiment: Novel object recognition in 5xFAD mice; set-up: key: (novel − familiar)/(novel + familiar) exploration time, −1 to 1; settings: 5xFAD 1 month
Description: We next aimed to test the effect of QR2 inhibition in AD model mice using YB-537, taking advantage of its extremely high specificity, solubility, and lack of toxicity. First, we determined YB-537 pharmacokinetics (PK) and oral bioavailability and assessed any acute observable toxicity in mice. […] We therefore opted to chronically deliver YB-537 to AD-model mice via their drinking water, so they may freely ingest the inhibitor at 50 mg/kg, with minimal intervention or trauma, for 1 month. We chose 9-month-old 5xFAD ([27]) male and female mice in double-blind experiments, so that well-progressed symptoms and pathologies would be present, to mimic clinically relevant cases in human patients ([35]), as has been previously described in this mouse model. Other than an improvement in nest quality ([36]) over time seen in animals receiving YB-537 (starting at age 8 months and ending at age 9 months), no changes to general physical parameters or wellbeing were observed over the 1 month of YB-537 ingestion (Supplemental Figure 6, A–J). […] Since learning in this paradigm was slow, and performance was poor even following 6 days of training (using 4 learning trials a day), a test day was not carried out and instead only the learning rate was measured. […]
Following a 10 minute exploration of a 50 × 50 cm open-field arena, mice were returned to the arena the next day, which contained 2 identical objects. […] Mouse movement, exploration, and nuzzling was automatically recorded with an Ikegami ICD-49E camera with EthoVision 14 (Noldus Information Technology). Discrimination of the novel object was assessed by calculating (time exploring novel object – time exploring familiar object)/(time exploring novel object + time exploring familiar object). […]
Mice were individually placed within a cage and taken to a dimly lit room containing an open field arena 50 x 50 cm in size. […] Th e fl oor was ei ther whit e or black,dependingon mous e coat c ol or, to allow automatic analysisof movement par am et ers, apar t from rearing which was manually counted. […]

## Cc1ccc(-c2cn3cccc(C)c3n2)cc1S(=O)(=O)N1CCNCC1 [YB-537]
[1]; 5xFAD females
  average weight: 22.76 ± 0.192 g
[1]; 5xFAD males
  average weight: 32.56 ± 0.279 g
[1]; Female, Day 1
  Sup. Fig. 5-2A, body weight: 23 and 22 and 24 and 25 and 21 and 20
[1]; Female, Day 3
  Sup. Fig. 5-2A, body weight: 25 and 20 and 24 and 23
[1]; Female, Day 5
  Sup. Fig. 5-2A, body weight: 25 and 21 and 27 and 24 and 20
[1]; Female, Day 9
  Sup. Fig. 5-2A, body weight: 24 and 20 and 25 and 27 and 22
[1]; Female, Day 11
  Sup. Fig. 5-2A, body weight: 23 and 21 and 25 and 26 and 22
[1]; Female, Day 15
  Sup. Fig. 5-2A, body weight: 25 and 22 and 26 and 23 and 24
[1]; Female, Day 16
  Sup. Fig. 5-2A, body weight: 23 and 20 and 24
[1]; Female, Day 18
  Sup. Fig. 5-2A, body weight: 23 and 21 and 24 and 22 and 20
[1]; Female, Day 25
  Sup. Fig. 5-2A, body weight: 25 and 22 and 23 and 21
[1]; Male, Day 1
  Sup. Fig. 5-2A, body weight: 34 and 42 and 33 and 36 and 31 and 28
[1]; Male, Day 3
  Sup. Fig. 5-2A, body weight: 33 and 41 and 32 and 35 and 30 and 26
[1]; Male, Day 5
  Sup. Fig. 5-2A, body weight: 33 and 40 and 32 and 35 and 30 and 26 and 34 and 31
[1]; Male, Day 9
  Sup. Fig. 5-2A, body weight: 31 and 39 and 32 and 33 and 30 and 27 and 35
[1]; Male, Day 11
  Sup. Fig. 5-2A, body weight: 31 and 32 and 34 and 30 and 28 and 35
[1]; Male, Day 15
  Sup. Fig. 5-2A, body weight: 32 and 39 and 34 and 31 and 28 and 36
[1]; Male, Day 18
  Sup. Fig. 5-2A, body weight: 32 and 37 and 29 and 30 and 33 and 27 and 35
[1]; Male, Day 25
  Sup. Fig. 5-2A, body weight: 32 and 39 and 31 and 34 and 27
5xFAD mice [2]; 5xFAD 1 month, regardless of sex (Pearson r)
  Nest quality: significantly correlated to time under treatment
5xFAD mice [2]; Females, Day 0
  Sup. Fig. 5-2J, nesting: 2 and 3
5xFAD mice [2]; Females, Day 7
  Sup. Fig. 5-2J, nesting: 3 and 4
5xFAD mice [2]; Females, Day 14
  Sup. Fig. 5-2J, nesting: 4
5xFAD mice [2]; Females, Day 21
  Sup. Fig. 5-2J, nesting: 5 and 4
5xFAD mice [2]; Males + Females, Day 0
  Sup. Fig. 5-2J, nesting: 3 and 2
5xFAD mice [2]; Males + Females, Day 7
  Sup. Fig. 5-2J, nesting: 4 and 3
5xFAD mice [2]; Males + Females, Day 14
  Sup. Fig. 5-2J, nesting: 4 and 3
5xFAD mice [2]; Males + Females, Day 21
  Sup. Fig. 5-2J, nesting: 5 and 4
5xFAD mice [2]; Males, Day 0
  Sup. Fig. 5-2J, nesting: 2 and 3
5xFAD mice [2]; Males, Day 7
  Sup. Fig. 5-2J, nesting: 3 and 4
5xFAD mice [2]; Males, Day 14
  Sup. Fig. 5-2J, nesting: 4 and 3
5xFAD mice [2]; Males, Day 21
  Sup. Fig. 5-2J, nesting: 4 and 5
5xFAD mice [3]; both sexes
  novel object discrimination (individual mice): -0.101 and 0.504 and 0.236 and 0.249 and -0.330 and 0.874 and 0.145 and -0.163 and -0.038 and -0.010 and 0.265 and -0.414 and 0.439 and 0.710 and 0.259 and 0.231
5xFAD mice [3]; females
  novel object discrimination (individual mice): 0.504 and 0.236 and 0.439 and 0.710 and 0.259 and 0.231 and -0.101
5xFAD mice [3]; males
  novel object discrimination (individual mice): -0.038 and -0.010 and 0.265 and -0.414 and 0.249 and -0.330 and 0.874 and 0.145 and -0.163
